# Measurements as given in a melting point compilation (Tetko et al.; mined from patent text by program, amines drawn as free bases though some values may be those of a salt).
row,Structure (SMILES),melting point [°C]
1,C=CCN1C(=O)CSC1=NOC(=O)NC,108 to 110
2,CS(=O)(=O)c1ccc(-c2sc(-c3ccccc3Cl)nc2-c2cccs2)cc1,171 to 174
3,OCc1ncn(CCCc2ccc(OCc3coc(/C=C/c4ccccc4)n3)cc2)c1CO,146 to 148
4,ClCCOc1ccc([C@H]2c3ccc(OCc4ccccc4)cc3OC[C@H]2c2ccccc2)cc1 (racemic),66 to 70.6
5,CCn1c2ccccc2c2cc(N(Cc3ccccc3)Cc3ccccc3)ccc21,123 to 125
6,COc1nsnc1S(C)(=O)=O,110 to 112
7,CC(O)Cc1ccc(-c2ccc3cc(C(=O)O)ccc3c2)cc1C12CC3CC(CC(C3)C1)C2 (stereo not drawn),282
8,CCCCCCCCCCCCCCOc1ccccc1C(=O)N(CC)CC,31 to 32
9,Nc1nc2ccc3ccc(CNc4ccc(F)cc4)cc3c2c(=O)[nH]1,> 230
10,O=C(O)COc1c(F)ccc(-c2c3ccccc3c(Br)c3sc4ccccc4c23)c1F,195 to 197
11,Cc1nc(C(F)(F)F)ccc1NC(=NC#N)NC(NC(=O)c1ccc(Cl)cc1)C(C)(Cl)Cl (stereo not drawn),115 to 116
12,COc1ccc(/C=C/C(=O)N2CC(CCl)c3c2cc([N+](=O)[O-])c2cc(S(=O)(=O)NCCO)ccc32)cc1 (stereo not drawn),250 to 251
13,Cc1onc2c1N(CCCOc1ccccc1)C(=O)COC2(C)c1ccccc1 (stereo not drawn),118 to 120
14,CC1(C)CCc2c(ccc3c2C(=O)C=C(O)C3=O)O1,184 to 187
15,C=CC(O)c1c(C(C)C)nc(C(C)C)c(CCCCC)c1-c1ccc(F)cc1 (stereo not drawn),83 to 85
16,CN1C(=O)C(C(=O)Nc2ccc(Cl)c(Cl)c2)S(=O)(=O)c2cc(Cl)ccc21 (stereo not drawn),176 to 178
17,O=C(CC1NC(=O)c2ccsc2-n2cccc21)c1ccccc1 (stereo not drawn),205

row,Structure (SMILES),melting point [°C]
1,CCCCCCC#Cc1ccc(C=C(C(=O)O)C(=O)O)s1,106
2,CC(C(=O)O)c1ccc2onc(-c3ccc(Cl)cc3)c2c1 (stereo not drawn),137 to 139
3,CN(CCOc1ccc([N+](=O)[O-])cc1)CCc1ccc([N+](=O)[O-])cc1,74
4,C=CCNC1=NN=C(c2ccc(Cl)cc2Cl)CS1,188 to 189
5,O=[N+]([O-])c1ccc(-c2nc3c(Cl)ncnc3o2)cc1,231
6,Cc1cc2cn[nH]c(=O)c2n1CC(C)C,188 to 191
7,O=C(OCc1ccccc1)C1(Nc2ccccc2)CCN(CCc2ccccc2)CC1,76.7
8,Nc1ccc(OCc2nc3ccccc3s2)cc1,87 to 89
9,CCOC(=O)Cn1c(-c2ccc([N+](=O)[O-])cc2)nc2cccnc21,192 to 194
10,CC(C)N1CCC(N2CCN(CCN3CCCCC3)C2=C(C#N)C#N)CC1,93 to 95
11,Cc1nc2c(c3c1[nH]c1ccccc13)C(=O)CC(C)(C)C2,176 to 177
12,CCN(c1nc(C)cc(C(=O)O)n1)c1ccc(C(C)C)cc1Br,102 to 104
13,CCCOCc1cc2c(-c3ccc(OCc4ccccc4)cc3)c(CC)c3cccc1n32,78 to 80
14,"CC1(C(=O)O)Cc2ccccc2NC1=O (single isomer, unassigned; (+))",139 to 141
15,CC(=O)Nc1cc(C(=O)OC2OC(COC(=O)c3ccccc3)C(OC3OC4COC(c5ccncc5)OC4C(O)C3O)C(O)C2O)ccc1Cl (stereo not drawn),260 to 262
16,CN(C)C=C1C(=O)CCc2c1cnn2C,94 to 100

# Continued, values first:
row,melting point [°C],Structure (SMILES)
1,198 to 200,CCOC(=O)c1cc2c3n(ccc-2n1)CC(c1cccc(OC)c1)=N3
2,129 to 136,COC(=O)[C@@H]1CN(C(=O)OC(C)(C)C)CC[C@@H]1C(=O)O (relative stereo)
3,225 to 227,COC(=O)C(Cc1ccccc1)NC(=O)C(N)(CC(=O)O)C(=O)N1CCCCC1 (stereo not drawn)
4,64 to 72,COC(=O)C1(c2ccc(OCCNC(=O)C3Cc4ccccc4N3S(=O)(=O)c3ccc(-c4cc(C(F)(F)F)ccc4Cl)cc3)cc2)CC1 (stereo not drawn)
5,144 to 146,CC(=O)N1CCN(c2c(Cl)cncc2Cl)CC1
6,65 to 70,Cc1ccc(Cl)c(C2CCc3c(C)cnnc3C2)c1 (stereo not drawn)
7,170 to 172,O=C1Nc2ccc(Cl)cc2C(OCc2ccccn2)(C(F)(F)F)CN1C1CC1 (stereo not drawn)
8,63 to 67,CC(C(=O)O)C1CC(=O)N(c2ccc(Cl)cc2)C1 (stereo not drawn)
9,183 to 184,C=CC(C)c1cc(C)c2c(c1O)C(N(C)C(=O)c1cccnc1)C1CCCCC21 (stereo not drawn)
10,128 to 129,COC(=O)CS(=O)(=O)NOC[C@@H]1NC(=O)[C@@H]1NC(=O)OC(C)(C)C (relative stereo)
11,208 to 210,C#CCN(Cc1cc2c(=O)n(C)c(CN3CCC(O)CC3)nc2cc1Cl)c1ccc(C(=O)OC(C)(C)C)cc1
12,161 to 162,COc1cccc(C2(CC(=O)N(C)C)C=CCCC2)c1 (stereo not drawn)
13,127 to 128,COC(=O)c1ccc(OCCCN2C(=O)c3ccccc3C2=O)c(OC)c1
14,114 to 134,Cc1cc(C2=NOC(c3cc(Cl)cc(Cl)c3)(C(F)(F)F)O2)ccc1C(=O)O (stereo not drawn)
15,160 to 161,Nc1cc2c(cc1C(=O)c1ccccc1)OCO2
16,102,COC(=O)CCC(=O)c1ccccc1NC(=O)CCl
17,144 to 145,COC(=O)c1cc2c(s1)[C@@H](N1CCCCC1=O)[C@H](OCc1ccccc1)C(C)(C)O2 (relative stereo)
18,126 to 128,CC(=O)NCCCC(=O)c1ccc(Cl)cc1CCC(=O)N1CCN(C)CC1

row,melting point [°C],Structure (SMILES)
1,145 to 147,C#CCOc1cc(C(=O)O)cc([N+](=O)[O-])c1-c1ccccc1
2,62 to 65,C#CCOc1ccc2c(c1)c(-c1ccc(C(C)C)cc1)nc(=O)n2Cc1cccc(OC(C)(C)C)n1
3,164 to 166,NC(=O)N1C(=O)C(C(=O)c2cc(Cl)cs2)c2cc(C(F)(F)F)ccc21 (stereo not drawn)
4,> 270,CNc1cc2c(c(C)c1F)c(=O)c(C(=O)O)cn2-c1cc(N)c(F)cc1F
5,133 to 134,COc1cc(N)c(Cl)cc1C(=O)CCC1CCN(C(=O)OC(C)(C)C)CC1
6,259 to 260,Cc1cccc(C)c1CNc1cc(C(=O)NCCO)cc2c1nc(C)n2C
7,215,O=C(Nc1cnccn1)Nc1cccc2c1C1CCCCN1C2=O (stereo not drawn)
8,163 to 167,CC(C)(C)OC(=O)N1CCC(c2nc3cc(-c4ccc(-c5nnn[nH]5)c(F)c4)ccc3o2)CC1
9,114 to 119,COC(=O)c1csc2c(=O)cc(C3CCCCC3)oc12
10,220 to 222,CCOC1=Nc2nc(C(C)(C)C)[nH]c2C2=N[C@H](Cc3ccccc3)CN12
11,219 to 220,CN1CCN(C(=O)c2cc3c4ccccc4n(C)c3s2)CC1
12,43 to 52,CC(C)(C)OC(=O)[C@@H](N)Cc1ccc(O)c(C(C)(C)C)c1
13,152 to 154,COc1ccc(CCN2CCC(NC(C)=O)CC2)cc1OC
14,211 to 214,CC(C)(C)c1cc(NC(=O)C=Cc2ccccc2)cc(C(C)(C)C)c1O
15,97 to 100,COC(=O)c1ccccc1C(=O)Nc1cc(C(F)(F)C(F)(F)F)on1
16,135 to 137,CC(C)(C(=O)O)c1ccc(C(O)CCCN2CCC(=C3c4ccccc4CCc4ccccc43)CC2)cc1 (stereo not drawn)
17,264 to 268,Cc1cc(Cl)cc(Cl)c1CNc1c(NC(C)(C)C)c(=O)c1=O
